For one assay, the system named is TNFα. Nature of the assay: Secretion of TNFα from BzATP/LPS-activated microglia (ELISA). Format: cell-based, Balb/C mice. As for the experimental part: Experiments were performed on primary microglial cells isolated from brains of neonatal Balb/C mice as previously described (Reichert and Rotshenker, 2003). The brains were stripped of their meninges and enzymatically dissociated. Cells were plated on Poly-L-lysine coated flasks for one week, re-plated for 1- to 2-hr on bacteriological plates and non-adherent cells were washed away. Microglia were propagated by incubation in 20% of medium, conditioned by the L-cell line that produces mouse-CSF. They were identified by morphology and positive immune-reactivity to P2y12, F4/80, complement receptor-3 and Galectin-3/MAC-2 (Reichert and Rotshenker 2003; Gitik et al. 2011).
Cytokines were measured as previously described (Shamash et al. 2002) using ELISA Max deluxe set (Biolegend, CA, USA) for secreted TNFα and IL-6 proteins and ELISA DuoSet (R&D systems, UK) for secreted and cell associated IL-1β, according to manufacturer's instructions.
The effect of ladostigil at concentrations of 1×10^−13 M to 1×10^−9 M on the secretion of cytokine proteins was assessed by adding it to microglia for 2 hr before LPS (0.75 μg/ml) and BzATP (400 μM). Other microglia were treated similarly with the steroid, budesonide as a reference standard at concentrations of 1× 10^−13 to 1× 10^−11 M. Measurements of cytokine secretion were performed 8 hrs after addition of LPS and BzATP. Since the levels of secreted IL-1β were still low, samples were concentrated 2- to 4-fold by an Amicon ultra-centrifugal filter device (Merck-Millipore, Ireland). ELISA was used to quantify the levels of cytokine proteins. Protein content in the microglia lysate was measured by Bradford and levels of cytokines were calculated and presented as pg/μg of microglial protein.
On the technique in general: In an ELISA, binding on a coated surface is turned into a signal by an enzyme label.

For a further assay, the system named is TGFβ. Put plainly: TGFβ-containing cells in skin, bleomycin-induced skin sclerosis. The format is in vivo, C57BL/6 mice. The following applies: ladostigil 10 mg/kg/day + bleomycin; p<0.05. As to the method:
(§1) Male C57BL/6 mice aged 8 weeks were housed under pathogen-free conditions at a controlled temperature of 22-24° C., humidity and alternating 12-h light/dark cycles and provided with food and water ad libitum. Skin sclerosis was induced as described by Ravanetti et al, (2020). A small incision was made in the skin at the back caudal to the scapulae and subcutaneous pocket was created into which an Alzet micro-osmotic pump was implanted, and the incision closed with two stiches and a surgical clip. The pumps contained bleomycin, (delivered at the rate of 60 U/kg body weight) or saline (control) and were removed 10 days after implantation. The mice were monitored daily until they recovered completely and weighed twice weekly from the beginning of the experiment.
(§2) Ladostigil (10 mg/kg/day) was administered in the drinking fluid to 10 mice, housed 2/cage, from 3 days before bleomycin pump installation until the end of the experiment. The fluid intake of the mice was measured daily. The dose of ladostigil was adjusted accordingly. Bleomycin alone, (10 mice) and saline controls (6 mice) received regular drinking fluid.

The next assay relates to skin sclerosis. Put plainly: Dermal and hypodermal thickness in bleomycin-induced skin sclerosis. Format: in vivo, C57BL/6 mice. The following applies: ladostigil 10 mg/kg/day + bleomycin; p<0.05. As to the method:
as §1, §2
Skin was harvested on the gluteal region to avoid dermal fibrosis artifact due to proximity to the site of implant. For histological assessment, the samples were dehydrated in a graded ethanol series, clarified in xylene, and paraffin embedded. They were mounted on slides and paraffin was removed. Sections of 5 μm thickness were cut with a rotary microtome and stained with hematoxylin and eosin (H&E)

The subject of a further assay is IL-6. Put plainly: IL-6 in bronchial fluid, bleomycin-induced lung fibrosis (ELISA). Format: in vivo, C57BL/6JOlaHsd mice. The following applies: ladostigil, bleomycin-induced lung fibrosis. As to the method:
The animal model of bleomycin-induced lung fibrosis is widely used to characterize the potential inhibitory effect of newly developed drugs (Distler et al. 2019). Experiments were performed in C57BL/6JOlaHsd male and female mice aged 12-13 weeks. Male mice weighed 23-27.3 g and female mice, 19.4-21.1 g. They were housed under pathogen-free conditions, up to 6 per cage, in IVC cages under a controlled temperature of 22-24° C., humidity and alternating 12-h light/dark cycles and provided with food and water ad libitum. In order to minimize the stress of daily injection, ladostigil (5 mg/Kg/day) was administered by micro-osmotic pumps, implanted subcutaneously under ketamine/xylazine anesthesia, 5 days before administration of bleomycin, and delivered for 3 weeks to mice of each sex. Saline (2-3/sex) and bleomycin controls were anesthetized as described above. Bleomycin solution (0.25 mg/kg in 50 μl) was instilled into the lumen of the trachea as shown in a video by Ehrentraut et al. (2019). […] TNFα and IL-6 in the bronchial fluid lavage was measured by ELISA as described in the preceding section.
Experiments were performed in C57BL/6JOlaHsd male mice aged 12-13 weeks as described for ladostigil. […] Fibrosis was measured by staining with Sirius red as described for ladostigil. TNFα and IL-6 in the bronchial fluid lavage was measured by ELISA as described for ladostigil.

For assay [1], the system named is bleomycin-induced lung fibrosis. Put plainly: Lung fibrosis score / collagen content in bleomycin-induced lung fibrosis. The format is in vivo, C57BL/6JOlaHsd mice. As to the method: The animal model of bleomycin-induced lung fibrosis is widely used to characterize the potential inhibitory effect of newly developed drugs (Distler et al. 2019). Experiments were performed in C57BL/6JOlaHsd male and female mice aged 12-13 weeks. Male mice weighed 23-27.3 g and female mice, 19.4-21.1 g. They were housed under pathogen-free conditions, up to 6 per cage, in IVC cages under a controlled temperature of 22-24° C., humidity and alternating 12-h light/dark cycles and provided with food and water ad libitum. In order to minimize the stress of daily injection, ladostigil (5 mg/Kg/day) was administered by micro-osmotic pumps, implanted subcutaneously under ketamine/xylazine anesthesia, 5 days before administration of bleomycin, and delivered for 3 weeks to mice of each sex. Saline (2-3/sex) and bleomycin controls were anesthetized as described above. Bleomycin solution (0.25 mg/kg in 50 μl) was instilled into the lumen of the trachea as shown in a video by Ehrentraut et al. (2019). […] Mice were weighed daily and sacrificed on day 21. Bronchial fluid was collected as described in Ehrentraut et al. (2019). TNFα and IL-6 in the bronchial fluid lavage was measured by ELISA as described in the preceding section.
Specimens taken from the left lung were embedded in paraffin and cut into 5 μm-thick slices. They were put on slides and paraffin was removed. They were rehydrated and stained with a solution of Sirius red (100 mg/100 ml of [COMPOUND LEFT OUT], rinsed in distilled water until clear, dehydrated and mounted in a resinous medium. The red stain (also called “Sirius red” stain) is one of the best understood histochemical techniques. It relies on the birefringent properties of collagen and is much more specific than the other common collagen stains, Pulmonary fibrosis was evaluated on a score of 0-4 on 15-20 different fields taken from each lung section, according to the area and intensity of fibrotic staining in the field, excluding that in blood vessels. Two independent scientists blinded to the treatment performed the analysis. For TGFβ1 staining, slides were deparaffinized and rehydrated. Antigen retrieval was performed in Tris-based buffer, pH 9.0. Endogenous peroxidase activity was quenched by incubation in 3% H2O2. The tissue was permeabilized with Triton X-100 0.1% in PBS. After blocking, sections were incubated with primary antibody: diluted rabbit recombinant monoclonal TGFβ1 antibody (Abcam ab215715) over night, at 4° C. Slices were further incubated with the secondary antibody: ImmPRESS®-HRP Goat Anti-Rabbit IgG Polymer Detection Kit, Peroxidase (Vector labs VE-MP-7451-15) at room temperature. For color development, sections were incubated in peroxidase substrate solution DAB, at room temperature until desired stain intensity developed. They were then counterstained with filtered hematoxylin and cosin, cleared and mounted.
Experiments were performed in C57BL/6JOlaHsd male mice aged 12-13 weeks as described for ladostigil. AN1284 (2.5 mg/kg/day) was administered by micro-osmotic pumps, implanted subcutaneously under ketamine/xylazine anesthesia, 5 days before administration of bleomycin and delivered for 3 weeks. Mice were weighed daily, sacrificed on day 21 and bronchial fluid was collected. Fibrosis was measured by staining with Sirius red as described for ladostigil. TNFα and IL-6 in the bronchial fluid lavage was measured by ELISA as described for ladostigil.

From patent US20260294863A1, “METHOD OF TREATING FIBROTIC-RELATED CONDITION” (YISSUM RESEARCH DEVELOPMENT COMPANY OF THE HEBREW …, priority 2023, published 2026) come the findings set out here.

Entries after “also recorded” stand apart in the source; their conditions may differ.

Take `C#CCN[C@@H]1CCc2ccc(OC(=O)N(C)CC)cc21` [Ladostigil, 6-(N-ethyl, N-methylcarbamyloxy)-N propargyl-1 (R)-aminoindan hemitartrate]: in the assay with TNFα (Mus musculus, microglia, BzATP/LPS, medium containing BSA, 8 hrs, read-out: lowest concentration that significantly decreased TNFα secretion), the minimal effective concentration was 1e-07 µM. Besides, the “reduction of TNFα release” value with TNFα (all concentrations tested, added 2 hrs before BzATP and LPS, 0.1% BSA, p<0.01) was “reduced the 3 cytokines significantly”. Further, in the assay with TGFβ, the “number of TGFβ-containing cells in the skin” value was “significantly reduced the number of TGFβ-containing cells”. Also, in the assay on skin sclerosis, the dermal thickness result was “significant reduction of dermal thickness” and the hypodermal thickness entry was “increase of hypodermal thickness”. Moreover, the “IL-6 in bronchial fluid” value in the assay with IL-6 is “generally not affected; also recorded: did not reduce”. Also, in assay [1] (bleomycin-induced lung fibrosis murine model), the “fibrosis (overall conclusion)” value was “shown to reduce fibrosis”. Further, in assay [1] (both sexes, 5 mg/Kg/day), the “collagen deposition (hydroxyproline)” value was “reduced collagen deposition”. For the same molecule, the “fibrosis (score)” value in assay [1] (females, 2.5 and 5 mg/Kg/day) is recorded as “significantly reduced fibrosis”. Besides, the “fibrosis (score)” value in assay [1] (males, 5 and 10 mg/kg/day) was “significantly reduced fibrosis”. Moreover, in assay [1] (mouse, in vivo), the “anti-inflammatory effect in bleomycin-induced lung fibrosis model” value is on record as “does not have an anti-inflammatory effect”.
